Reference: US20230135152A1 (ACURASTEM INCORPORATED, priority 2020, published 2023)

Key:
PIKFYVE [1] = molecular target: T1, PIKFYVE (Homo sapiens, UniProt Q9Y2I7); test: PIKFYVE assay (luciferase ADP-Glo kinase assay, Promega); type: biochemical
Method: The activity of Compounds 1-20 was measured using a PIKFYVE assay (luciferase ADP-Glo kinase assay available from Promega Corp. of Madison, Wis.).
The activity of Compounds 39-90 was also measured using a PIKFYVE assay (luciferase ADP-Glo kinase assay available from Promega Corp. of Madison, Wis.).
The activity of Compounds 93-347 was also measured using a PIKFYVE assay (luciferase ADP-Glo kinase assay available from Promega Corp. of Madison, Wis.).

PIKFYVE [2] = molecular target: T1, PIKFYVE; test: Cell-based Pikfyve inhibition activity assay (EEA1 staining, mean vesicle size in BJ fibroblast cells); conditions: Table 4, 4 hours treatment, 3 μM Apilimod = 100% inhibition
Method: BJ fibroblast cells were obtained from American Type Cell Culture (ATCC, CRL-2522). The cells were maintained in DMEM (Genesee Scientific, 25-500) supplemented with 10% fetal bovine serum (Genesee Scientific, 25-514) and 1% penicillin-streptomycin (Genesee Scientific, 25-512) at 37° C. in the atmosphere 5% CO2. BJ fibroblasts were plated into black flat clear bottom 96-well plates (Grenier, 655090) at a density of 3×10^3 per well and were allowed to attach in culture for 8-10 hours before drug treatment. Drugs were tested at eleven doses separated by 3 fold from 0.03 nM to 3000 nM in triplicates for 4 hours at 37° C. After 4 hours, treatment media was aspirated and replaced with 4% Paraformaldehyde (Electron Microscopy Science, 15714-S) and cells were fixed at room temperature for 5 minutes. 4% PFA in wells were then discarded and replaced with a blocking buffer consisting of 1×PBS with 0.1% Tween (Sigma-Aldrich, P1754-500), 5% Donkey Serum (Jackson ImmunoResearch, 017-000-121), and 1% BSA (Caisson Labs, B005-50GM) and incubated at room temperature for 30 minutes. Blocking buffer was then discarded and replaced with a primary EEA1 antibody (Fisher Scientific, BD610457) in a 1:1000 dilution and incubated at 4° C. overnight. Following overnight incubation, plates were washed with 1×PBS three times and incubated with secondary antibody Donkey anti-Mouse IgG, Alexa Fluor 555 (Invitrogen, A31570) (1:1000 dilution) for 1 hour at room temperature in the dark. Subsequently cell plates were washed with 1×PBS three times and can be stored at 4° C. if not being proceeding with imaging procedure.
Images were acquired with 20× objective (ImageXpress MicroConfocal, Molecular Devices) creating z-series of 5 planes (5 steps, […]), 16 tiles per well. Images were then analyzed using a custom CellProfiler protocol to obtain mean vesicle size. The mean vesicle size from 16 images was used as the output for each well. The mean vesicle size from 0.5% DMSO treated condition was considered as having no Pikfyve inhibition activity and the 3 μM Apilimod treated condition was considered as having 100% inhibition activity. The mean vesicle size was converted to % inhibition activity and the data was fitted to a dose-response curve using log(inhibitor) vs normalized response-variable slope using GraphPad Prism.

T1 sequence (Q9Y2I7 whole entry): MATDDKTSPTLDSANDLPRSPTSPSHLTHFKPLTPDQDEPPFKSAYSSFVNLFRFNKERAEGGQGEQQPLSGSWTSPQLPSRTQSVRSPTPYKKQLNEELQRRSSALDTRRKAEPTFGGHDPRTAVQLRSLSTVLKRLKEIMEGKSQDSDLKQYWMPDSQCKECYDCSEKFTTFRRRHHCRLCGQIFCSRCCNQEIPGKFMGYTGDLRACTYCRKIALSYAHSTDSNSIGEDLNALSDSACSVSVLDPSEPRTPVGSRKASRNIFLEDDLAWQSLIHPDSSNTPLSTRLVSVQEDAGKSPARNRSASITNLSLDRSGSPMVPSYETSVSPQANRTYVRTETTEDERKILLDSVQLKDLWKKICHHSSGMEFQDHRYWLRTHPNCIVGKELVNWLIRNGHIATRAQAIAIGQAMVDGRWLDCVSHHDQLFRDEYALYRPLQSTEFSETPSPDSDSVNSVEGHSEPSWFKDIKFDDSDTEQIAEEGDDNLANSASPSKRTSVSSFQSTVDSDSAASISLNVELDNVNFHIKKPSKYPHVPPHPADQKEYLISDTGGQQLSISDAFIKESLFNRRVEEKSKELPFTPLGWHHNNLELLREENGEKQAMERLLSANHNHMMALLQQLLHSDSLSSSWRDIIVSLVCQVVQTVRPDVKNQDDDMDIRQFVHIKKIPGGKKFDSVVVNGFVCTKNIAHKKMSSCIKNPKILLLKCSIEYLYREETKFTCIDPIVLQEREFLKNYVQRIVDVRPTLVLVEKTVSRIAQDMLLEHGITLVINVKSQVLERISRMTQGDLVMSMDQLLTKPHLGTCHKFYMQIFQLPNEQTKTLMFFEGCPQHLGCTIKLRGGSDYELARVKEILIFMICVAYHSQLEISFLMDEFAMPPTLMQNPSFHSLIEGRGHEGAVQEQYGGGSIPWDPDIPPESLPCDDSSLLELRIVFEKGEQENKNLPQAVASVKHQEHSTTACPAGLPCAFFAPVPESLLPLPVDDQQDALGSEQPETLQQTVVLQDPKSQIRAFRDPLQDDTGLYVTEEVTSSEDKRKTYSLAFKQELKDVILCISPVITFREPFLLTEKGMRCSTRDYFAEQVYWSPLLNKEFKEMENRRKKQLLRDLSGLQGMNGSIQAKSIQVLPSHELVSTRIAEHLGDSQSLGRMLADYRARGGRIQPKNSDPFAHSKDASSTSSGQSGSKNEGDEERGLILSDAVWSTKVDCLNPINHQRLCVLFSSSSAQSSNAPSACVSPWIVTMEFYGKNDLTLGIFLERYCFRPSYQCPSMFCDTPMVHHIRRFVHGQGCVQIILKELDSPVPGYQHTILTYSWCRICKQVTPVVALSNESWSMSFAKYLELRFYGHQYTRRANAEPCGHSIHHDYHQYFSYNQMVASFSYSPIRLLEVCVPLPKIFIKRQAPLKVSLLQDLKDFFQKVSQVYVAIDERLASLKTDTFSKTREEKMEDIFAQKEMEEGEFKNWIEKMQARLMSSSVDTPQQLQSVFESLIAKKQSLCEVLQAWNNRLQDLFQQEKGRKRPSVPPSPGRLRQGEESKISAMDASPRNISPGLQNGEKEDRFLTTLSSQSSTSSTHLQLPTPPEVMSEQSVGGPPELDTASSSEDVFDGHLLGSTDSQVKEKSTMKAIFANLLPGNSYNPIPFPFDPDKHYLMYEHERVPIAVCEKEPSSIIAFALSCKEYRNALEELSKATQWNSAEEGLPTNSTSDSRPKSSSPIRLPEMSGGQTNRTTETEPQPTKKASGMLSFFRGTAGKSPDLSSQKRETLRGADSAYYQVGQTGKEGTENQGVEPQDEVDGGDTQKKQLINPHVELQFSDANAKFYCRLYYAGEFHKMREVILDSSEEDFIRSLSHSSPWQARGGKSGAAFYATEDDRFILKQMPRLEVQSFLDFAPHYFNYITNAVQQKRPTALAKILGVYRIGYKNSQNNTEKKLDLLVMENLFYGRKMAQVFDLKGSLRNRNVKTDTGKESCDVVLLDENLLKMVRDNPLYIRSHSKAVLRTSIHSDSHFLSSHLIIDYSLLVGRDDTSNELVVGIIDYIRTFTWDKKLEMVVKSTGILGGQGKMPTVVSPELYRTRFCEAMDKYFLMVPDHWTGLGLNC

Compound | IC50 (PIKFYVE [1]; Table 3) [nM] | EC50 (PIKFYVE [2]) [nM] | IC50 (PIKFYVE [1]; Table 2) [nM]
CCc1cccc(-c2ccn(-c3cc(N4CCOCC4)nc([C@@H](CO)OC)n3)n2)c1 [Compound 272, (S)-2-(4-(3-(3-ethylphenyl)-1H-pyrazol-1-yl)-6-morpholinopyrimidin-2-yl)-2-methoxyethan-1-ol] | 3 to 10 | 100 to 500 | 
CO[C@@H](CO)c1nc(N2CCOCC2)cc(-n2ccc(-c3cnc4ccccn34)n2)n1 [Compound 283, (R)-2-(4-(3-(imidazo[1,2-a]pyridin-3-yl)-1H-pyrazol-1-yl)-6-morpholinopyrimidin-2-yl)-2-methoxyethan-1-ol] | 100 to 5000 |  | 
CO[C@H](CO)c1nc(N2CCOCC2)cc(-n2nc(-c3c[nH]c4ncccc34)cc2C)n1 [Compound 284, (S)-2-methoxy-2-(4-(5-methyl-3-(1H-pyrrolo[2,3-b]pyridin-3-yl)-1H-pyrazol-1-yl)-6-morpholinopyrimidin-2-yl)ethan-1-ol] | 10 to 100 |  | 
c1cc(-c2cc(N3CCOCC3)nc(OCC3CCCO3)n2)n[nH]1 (stereo not shown) [Compound 45, 4-(6-(1H-pyrazol-3-yl)-2-((tetrahydrofuran-2-yl)methoxy)pyrimidin-4-yl)morpholine] |  |  | 101 to 1000
CO[C@@H](CO)c1nc(N2CCOCC2)cc(-n2ccc(-c3cc(C)ccc3C)n2)n1 (single isomer, unassigned) [Compound 342] | 10 to 100 |  | 
CO[C@H](CO)c1nc(N2CCOCC2)cc(-n2ccc(-c3cccc4c3OCO4)n2)n1 [Compound 266, (S)-2-(4-(3-(benzo[d][1,3]dioxol-4-yl)-1H-pyrazol-1-yl)-6-morpholinopyrimidin-2-yl)-2-methoxyethan-1-ol] | 100 to 5000 |  | 
CO[C@@H](CO)c1nc(N2CCOCC2)cc(-n2nc(-c3c[nH]c4ncccc34)cc2C)n1 [Compound 285, (R)-2-methoxy-2-(4-(5-methyl-3-(1H-pyrrolo[2,3-b]pyridin-3-yl)-1H-pyrazol-1-yl)-6-morpholinopyrimidin-2-yl)ethan-1-ol] | 10 to 100 |  | 
CO[C@@H](CO)c1nc(N2CCOCC2)cc(-n2ccc(-c3cccc4c3COC4)n2)n1 [Compound 271, (R)-2-(4-(3-(1,3-dihydroisobenzofuran-4-yl)-1H-pyrazol-1-yl)-6-morpholinopyrimidin-2-yl)-2-methoxyethan-1-ol] | 100 to 5000 |  | 
OCC(O)COc1nc(N2CCOCC2)cc(-n2cc3ccccc3n2)n1 (stereo not shown) [Compound 52] |  |  | 101 to 1000
COCC(O)c1nc(N2CCOCC2)cc(-n2ccc(-c3cccc(C)c3)n2)n1 (stereo not shown) [Compound 49] |  |  | 5 to 100
Cc1cccc(-c2ccn(-c3nc(NCCc4cnccn4)cc(N4CCOCC4)n3)n2)c1 [Compound 47] |  |  | 5 to 100
Cc1cc(-c2ccccc2)nn1-c1nc2c(c(N3CCOCC3)n1)CN(CCc1ccn(C)n1)C2 [Compound 240, 4-(6-(2-(1-methyl-1H-pyrazol-3-yl)ethyl)-2-(5-methyl-3-phenyl-1H-pyrazol-1-yl)-6,7-dihydro-5H-pyrrolo[3,4-d]pyrimidin-4-yl)morpholine] | 100 to 5000 |  | 
COC(CO)c1nc(N2CCOCC2)cc(-n2ccc(-c3cccc(C)c3)n2)n1 (stereo not shown) [Compound 50] |  |  | < 5
CO[C@@H](CO)c1nc(N2CCOCC2)cc(-n2ccc(-c3cccc(C)c3C)n2)n1 [Compound 265, (R)-2-(4-(3-(2,3-dimethylphenyl)-1H-pyrazol-1-yl)-6-morpholinopyrimidin-2-yl)-2-methoxyethan-1-ol] | 100 to 5000 |  | 
CO[C@H](CO)c1nc(N2CCOCC2)cc(-n2nc(-c3c[nH]c4ccncc34)cc2C)n1 [Compound 288, (S)-2-methoxy-2-(4-(5-methyl-3-(1H-pyrrolo[3,2-c]pyridin-3-yl)-1H-pyrazol-1-yl)-6-morpholinopyrimidin-2-yl)ethan-1-ol] | 100 to 5000 |  | 
Cc1cccc(-c2ccn(-c3cc(N4CC[C@H]5OCC[C@H]54)nc(C(O)CO)n3)n2)c1 (stereo partly shown) [Compound 48] |  |  | 101 to 1000
CO[C@H](CO)c1nc(N2CCOCC2)cc(-n2ccc(-c3cnc4ccccn34)n2)n1 [Compound 282, (S)-2-(4-(3-(imidazo[1,2-a]pyridin-3-yl)-1H-pyrazol-1-yl)-6-morpholinopyrimidin-2-yl)-2-methoxyethan-1-ol] | 100 to 5000 |  | 
CO[C@H](CO)c1nc(N2CCOCC2)cc(-n2ccc(-c3cccc4c3COC4)n2)n1 [Compound 270, (S)-2-(4-(3-(1,3-dihydroisobenzofuran-4-yl)-1H-pyrazol-1-yl)-6-morpholinopyrimidin-2-yl)-2-methoxyethan-1-ol] | 100 to 5000 |  | 

Continued, values first:

IC50 (PIKFYVE [1]; Table 3) [nM] | EC50 (PIKFYVE [2]) [nM] | IC50 (PIKFYVE [1]; Table 2) [nM] | Compound
3 to 10 | 20 to 100 |  | Cc1cccc(-c2ccn(-c3cc(N4CCOCC4)nc(OCc4ncccc4F)n3)n2)c1 [Compound 95, 4-(2-((3-fluoropyridin-2-yl)methoxy)-6-(3-(m-tolyl)-1H-pyrazol-1-yl)pyrimidin-4-yl)morpholine]
 | 500 to 5000 | 5 to 100 | COCc1cc(-c2ccccc2)n(-c2cc(N3CCOCC3)nc(OCCc3cnn(C)c3)n2)n1 [Compound 77, 4-(6-(3-(methoxymethyl)-5-phenyl-1H-pyrazol-1-yl)-2-(2-(1-methyl-1H-pyrazol-4-yl)ethoxy)pyrimidin-4-yl)morpholine]
 | 20 to 100 | < 5 | Cn1cc(CCOc2nc(N3CCOCC3)cc(-n3ccc(OCc4ccccc4)n3)n2)cn1 [Compound 62, 4-(6-(3-(benzyloxy)-1H-pyrazol-1-yl)-2-(2-(1-methyl-1H-pyrazol-4-yl)ethoxy)pyrimidin-4-yl)morpholine]
> 5000 |  |  | Cc1cccc(CC(=O)N(C)c2nc(OCCc3cnn(C)c3)cc(N3CCOCC3)n2)c1 [Compound 250, N-methyl-N-(4-(2-(1-methyl-1H-pyrazol-4-yl)ethoxy)-6-morpholinopyrimidin-2-yl)-2-(m-tolyl)acetamide]
10 to 100 |  |  | CCc1cc(-c2ccccc2)nn1-c1cc(N2CCOCC2)nc([C@@H](CO)OC)n1 [Compound 294, (S)-2-(4-(5-ethyl-3-phenyl-1H-pyrazol-1-yl)-6-morpholinopyrimidin-2-yl)-2-methoxyethan-1-ol]
100 to 5000 |  |  | Cn1cc(CCOc2nc(N3CCOCC3)cc(-n3ccc(C4CCC4)n3)n2)cn1 [Compound 192, 4-(6-(3-cyclobutyl-1H-pyrazol-1-yl)-2-(2-(1-methyl-1H-pyrazol-4-yl)ethoxy)pyrimidin-4-yl)morpholine]
3 to 10 |  |  | Cc1cccc(-c2ccn(-c3nc(OCCc4cnn(C)c4)cc(N4CCOCC4)n3)n2)c1 [Compound 251, 4-(6-(2-(1-methyl-1H-pyrazol-4-yl)ethoxy)-2-(3-(m-tolyl)-1H-pyrazol-1-yl)pyrimidin-4-yl)morpholine]
100 to 5000 |  |  | Cn1cc(CCOc2nc(N3CCOCC3)cc(-n3ccc(C4=CC(C)(C)CC=C4)n3)n2)cn1 [Compound 296, 4-(6-(3-(3,3-dimethylcyclohexa-1,5-dien-1-yl)-1H-pyrazol-1-yl)-2-(2-(1-methyl-1H-pyrazol-4-yl)ethoxy)pyrimidin-4-yl)morpholine]
10 to 100 |  |  | CN(C)Cc1cc(-c2ccccc2)nn1-c1cc(N2CCOCC2)nc(OCC2(C)COC2)n1 [Compound 207, N,N-dimethyl-1-(1-(2-((3-methyloxetan-3-yl)methoxy)-6-morpholinopyrimidin-4-yl)-3-phenyl-1H-pyrazol-5-yl)methanamine]
 |  | < 5 | Cn1cc(CCOc2nc(N3CCOCC3)cc(-n3ccc(-c4ccccc4)n3)n2)cn1 [Compound 73]
100 to 5000 |  |  | CO[C@@H](CO)c1nc(N2CCOCC2)cc(-n2nc(-c3cnc4ccccn34)cc2C)n1 [Compound 281, (R)-2-(4-(3-(imidazo[1,2-a]pyridin-3-yl)-5-methyl-1H-pyrazol-1-yl)-6-morpholinopyrimidin-2-yl)-2-methoxyethan-1-ol]
 |  | 101 to 1000 | Cc1cccc(-c2ccn(-c3cc(N4CCOCC4)nc(Cc4ccccc4)n3)n2)c1 [Compound 42]
> 5000 |  |  | Cc1cccc(CC(=O)Nc2nc(OCCc3cnn(C)c3)cc(N3CCOCC3)n2)c1 [Compound 248, N-(4-(2-(1-methyl-1H-pyrazol-4-yl)ethoxy)-6-morpholinopyrimidin-2-yl)-2-(m-tolyl)acetamide]
 |  | < 5 | Cn1cc(CCOc2nc(N3CCOCC3)cc(-n3ccc(-c4cccc(CO)c4)n3)n2)cn1 [Compound 89]
 |  | < 5 | Cc1cccc(-c2ccn(-c3cc(N4CCOCC4)nc(OCC4(C)COC4)n3)n2)c1 [Compound 67]
